The subject of one experiment is HT2C receptor. As to the kind of experiment: 5-HT2C protein levels, Western blot. In kind it is cell-based, human. The settings on record: 72 h, MCF7, Tamoxifen-cultured MCF7 and MCF7-R cells. Here is the method:
RIPA buffer (Promega, Madison, Wisconsin, USA) was used for proteins’ extraction. Lysates ([…] protein/sample) were blotted with anti-5HT2C (1:500). Total lysates were normalized using anti-Vinculin (1:10000). The autoradiographs shown were obtained by ECL kit (Bio-Rad, Hercules, CA, USA).
Figure S4. 5-HT2C protein in MCF7, Tamoxifen-cultured MCF7 and MCF-R cells in absence or in presence of SER.
Cells were treated with 5µM SER79 or 20µM SER68. Alter 72h, cell lysa te swere obtained and 5-HT2C protein le ve lswere measured by western blot analysis. Vinculin was used for protein le ve ls normalization. […]
(1 picture or pasted object on this page, not shown here)
(Immunoblotting shows a protein as a band on a membrane.)

The target in experiment [1] is T1, serotonin 5-HT1A receptor (Rattus norvegicus, UniProt P19327).
T1 construct: serotonin 5-HT1A receptor, [^3H]-8-OH-DPAT, rat brain cortex; from tissue; host or cells: rat brain cortex
T1 sequence (P19327 1-422): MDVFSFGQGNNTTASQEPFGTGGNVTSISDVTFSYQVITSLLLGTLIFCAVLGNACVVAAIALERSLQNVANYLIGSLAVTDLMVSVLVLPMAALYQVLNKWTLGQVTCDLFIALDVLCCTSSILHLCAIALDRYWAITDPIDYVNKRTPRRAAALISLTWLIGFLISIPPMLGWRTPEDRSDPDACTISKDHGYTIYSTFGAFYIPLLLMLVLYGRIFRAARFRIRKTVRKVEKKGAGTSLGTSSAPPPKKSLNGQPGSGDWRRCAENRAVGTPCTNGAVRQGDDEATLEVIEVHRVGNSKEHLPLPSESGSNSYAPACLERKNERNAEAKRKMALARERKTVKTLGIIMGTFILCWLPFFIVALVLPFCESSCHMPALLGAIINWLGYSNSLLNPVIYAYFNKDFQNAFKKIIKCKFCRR
As to the kind of experiment: radioligand binding assay, 5-HT1A, [3H]-8-OH-DPAT. The settings on record: rat brain cortex. The procedure:
All reactions were monitored by TLC, carried out on Merck 60G F254 plates with fluorescent indicator and the plates were visualized with UV light (254 nm). Each final compound and intermediate was purified by silica gel column chromatography (Macherey-Nagel 60 0,063–0,2 mm/70–230 mesh). […] Unless otherwise stated, all spectra were recorded in CDCl3. Chemical shifts are reported in ppm using Me4Si as internal standard. The following abbreviations are used to describe peak patterns when appropriate: s (singlet), d (doublet), t (triplet), m (multiplet), q (quartet), qt (quintet), dd (double doublet), ddd (double dd), bs (broad singlet). Mass spectra of the final products were performed on LTQ Orbitrap XL™ Fourier transform mass spectrometer (FTMS) equipped with ESI ION MAX™ source (Thermo Fisher, San José, USA). Melting points were determined using a Buchi B-540 hot-stage instrument and are uncorrected. […] All the compounds were dissolved in 5% DMSO. The following specific radioligands and tissue sources were used: (a)serotonin 5-HT1A receptor, [^3H]-8-OH-DPAT, rat brain cortex; (b) serotonin 5-HT2A receptor, [^3H]ketanserin, rat brain cortex; (c)serotonin 5-HT2C receptor, [^3H]mesulergine, rat brain cortex. Non-specific binding was determined as described in the experimental section, and specific binding as the difference between total and non-specific binding. […] The IC50 values obtained were used to calculate apparent inhibition constants (Ki) by the method of Cheng and Prussoff, from the following equation: Ki = IC50/(1 + S/KD) where S represents the concentration of the hot ligand used and KD its receptor dissociation constant (KD values, obtained by Scatchard analysis, were calculated for each labeled ligand). Radioligand binding assays for 5-HT1A were performed following a published procedure. 5-HT2A and 5-HT2C binding assays were performed reported by Herndon et al..

In the next experiment the test system is CTGF. As to the kind of experiment: CTGF mRNA levels in MCF7-R cells, qPCR. In kind it is cell-based, human. The settings on record: SER 20 μM. Here is the method:
Total RNA was isolated from cells, quantified (NanoDrop spectrophotometer, Life Technologies, Carlsbad, CA, USA) and reverse transcribed according to the manufacturer’s instructions. Semiquantitative PCR and qPCR assays were performed according to manufacturer’s instructions for Bio-Rad T100 thermal cycler and CFX Connect Real Time system (Biorad, Hercules, CA, USA), respectively. Relative gene expression quantification was measured by 2^−ΔΔCt method normalizing for the reference sample using Rps23 (Ribosomal Protein S23) as housekeeping gene.
Fig. 9 Effect of SER79 and SER68 on Tamoxifen-resistant (MCF7-R) cells. a Estrogen starved MCF7-R were treated with SER79 (20 μM, 5 μM) or SER68 (20 μM) in presence of E2 (100 nM). b Estrogen-starved MCF7-R were treated with Tamoxifen (5 μM) in presence of E2 and SER79 (20 μM) or SER68 (20 μM). a,b As positive control, the cells were treated with E2 alone, in absence or in presence of SER (dotted line). After 72 h, cell viability was assessed by sulforhodamine B assay (see Methods). The results were reported as percentage of viable cells compared to positive control, considered as maximum viability (100%). c mRNA levels of CTGF were determined by qPCR (see Methods and Table 1) in MCF7-R cells upon treatment with SER68 (20 μM). […]
(In qPCR the cycle at which signal appears reflects the starting amount.)

These results are taken from PMC8845285, “Serotoninergic receptor ligands improve Tamoxifen effectiveness on breast cancer cells” (BMC Cancer, 2022).

For `N#CN=C(NCCCN1CCN(C(c2ccc(F)cc2)c2ccc(F)cc2)CC1)c1ccccn1` [SER79], in the experiment with HT2C receptor (5 µM), the “change in protein levels of HT2C receptors upon SER treatment” value is “no difference in protein levels”. Besides, the “Ki ± SD, 5-HT1A [3H]8OH-DPAT” value in experiment [1] is “no affinity”. Also, the Ki (usually the dissociation constant of the complex between target and ligand, obtained from inhibition or displacement) in experiment [1] (read-out: Ki ± SD, 5-HT1A [3H]8OH-DPAT) is more than 10 µM.
In the case of `O=C1C2C3C=CC(C3)C2C(=O)N1OCCN1CCN(c2ccc(Cl)c(Cl)c2)CC1` (stereo not drawn) [SER68], the “change in protein levels of HT2C receptors upon SER treatment” value with HT2C receptor (20 µM) is reported as “no difference in protein levels”. The “effect on CTGF mRNA content of MCF7-R cells” value in the experiment on CTGF was “did not further reduce”. In addition, the “Ki ± SD, 5-HT1A [3H]8OH-DPAT” value in experiment [1] is listed as “No affinity”.
